Measurements from patent publication US11161856B2 (H. Lundbeck A/S, priority 2017, dated 2021).

Columns and labels:
ABHD6 = molecular target: T1, ABHD6 (Mus musculus, UniProt Q8R2Y0); assay: In vitro competitive activity-based protein profiling, mouse brain proteome (ABHD6); format: biochemical; details: mouse brain proteome; concentration not given (μM)
T1 construct: Brain; from tissue; host or cells: mouse brain proteome
T1 sequence (Q8R2Y0 1-336): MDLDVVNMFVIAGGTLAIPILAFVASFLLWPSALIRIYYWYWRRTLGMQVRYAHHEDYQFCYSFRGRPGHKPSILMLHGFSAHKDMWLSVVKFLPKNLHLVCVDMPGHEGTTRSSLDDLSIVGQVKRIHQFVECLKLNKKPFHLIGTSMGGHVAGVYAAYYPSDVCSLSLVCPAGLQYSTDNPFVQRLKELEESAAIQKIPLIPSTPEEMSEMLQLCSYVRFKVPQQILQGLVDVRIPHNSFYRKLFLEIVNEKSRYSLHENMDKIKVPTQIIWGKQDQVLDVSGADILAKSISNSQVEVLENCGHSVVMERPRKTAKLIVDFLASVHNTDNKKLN
Method: [The source words this procedure for another target and reports this target under the same test.] In Vitro Competitive Activity-Based Protein Profiling.
Proteomes (human prefrontal cortex or cell membrane fractions) (50 μL, 1.0 mg/mL total protein concentration) were preincubated with varying concentrations of inhibitors at 37° C. After 30 min, FP-Rh or HT-01 (1.0 μL, 50 μM in DMSO) was added and the mixture was incubated for another 30 min at room temperature. Reactions were quenched with SDS loading buffer (15 μL-4×) and run on SDS-PAGE.

MGLL = molecular target: T2, MGLL (Mus musculus, UniProt O35678); assay: In vitro competitive activity-based protein profiling, mouse brain proteome (MGLL); format: biochemical; details: concentration not given (μM)
T2 construct: Brain; from tissue; host or cells: mouse brain proteome
T2 sequence (O35678 1-303): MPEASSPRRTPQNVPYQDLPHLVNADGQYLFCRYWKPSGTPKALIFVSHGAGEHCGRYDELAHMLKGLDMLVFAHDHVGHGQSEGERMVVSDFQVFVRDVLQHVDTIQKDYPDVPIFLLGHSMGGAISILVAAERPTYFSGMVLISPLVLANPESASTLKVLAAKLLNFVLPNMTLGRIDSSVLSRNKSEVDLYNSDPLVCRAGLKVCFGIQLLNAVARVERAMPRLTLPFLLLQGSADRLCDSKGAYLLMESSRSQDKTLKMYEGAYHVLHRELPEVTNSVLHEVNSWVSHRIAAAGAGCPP

| % Inh ABHD6 Brain (Mouse, μM) (ABHD6) | % Inh MGLL Brain (Mouse, μM) (MGLL) | SMILES |
| --- | --- | --- |
| ## (## is between 25 and 75%) | ### (### is ≥75%) | CS(=O)(=O)N1CC2CN(c3cc(C(F)(F)F)ccc3CN3CCN(C(=O)OC(C(F)(F)F)C(F)(F)F)CC3)CC2C1 (stereo not drawn) [Example 201, 1,1,1,3,3,3-Hexafluoropropan-2-yl 4-(2-(5-(methylsulfonyl)hexahydropyrrolo[3,4-c]pyrrol-2(lH)-yl)-4-(tnfluoromethyl)benzyl)pipera zinc-1-carboxylate] |
| # (# is ≤25%) | ### (### is ≥75%) | CCN1CCN(c2cccc(C(F)(F)F)c2CN2CC3(CCN(C(=O)OC(C(F)(F)F)C(F)(F)F)CC3)C2)CC1 [Example 54, 1,1,1,3,3,3-Hexafluoropropan-2-yl 2-(2-(4-ethylpiperazin-1-yl)-6-(trifluoromethyl)benzyl)-2,7-diazaspiro[3.5]nonane-7-carboxylate] |
| ### (### is ≥75%) | ### (### is ≥75%) | O=C(OC(C(F)(F)F)C(F)(F)F)N1CCC2(CC1)CN(Cc1ccccc1N1CCCC1)C2 [Example 88, 1,1,1,3,3,3-Hexafluoropropan-2-yl 2-(2-(pyrrolidin-1-yl)benzyl)-2,7-diazaspiro[3.5]nonane-7-carboxylate] |
| # (# is ≤25%) | ### (### is ≥75%) | O=C(OC(C(F)(F)F)C(F)(F)F)N1CCC2(CCN(Cc3ccc(C(F)(F)F)cc3N3CCC(F)CC3)CC2)C1 [Example 192, 1,1,1,3,3,3-Hexafluoropropan-2-yl 8-(2-(4-fluoropiperidin-1-yl)-4-(trifluoromethyl)benzyl)-2,8-diazaspiro[4.5]decane-2-carboxylate] |
| ### (### is ≥75%) | ### (### is ≥75%) | CS(=O)(=O)N1CC2CN(c3cc(Cl)ccc3CN3CCN(C(=O)OC(C(F)(F)F)C(F)(F)F)CC3)CC2C1 (stereo not drawn) [Example 203, 1,1,1,3,3,3-Hexafluoropropan-2-yl 4-(4-chloro-2-(5-(methylsulfonyl)hexahydropyrrolo[3,4-c]pyrrol-2(lH)-yl)benzyl)piperazine-l - carboxylate] |
| ## (## is between 25 and 75%) | ### (### is ≥75%) | CS(=O)(=O)N1CC2(CCN(c3cc(Cl)ccc3CN3CCN(C(=O)OC(C(F)(F)F)C(F)(F)F)CC3)CC2)C1 [Example 212, 1,1,1,3,3,3-Hexafluoropropan-2-yl 4-(4-chloro-2-(2-(methylsulfonyl)-2,7-diazaspiro[3.5]nonan-7-yl)benzyl)piperazine-1-carboxylate] |
| ### (### is ≥75%) | # (# is ≤25%) | CC(=O)N1CCC2(CCN(c3cc(Cl)cc(CN4CCCC45CN(C(=O)OC(C(F)(F)F)C(F)(F)F)C5)c3)CC2)C1 [Example 234, 1,1,1,3,3,3-Hexafluoropropan-2-yl 5-(3-(2-acetyl-2,8-diazaspiro[4.5]decan-8-yl)-5-chlorobenzyl)-2,5-diazaspiro[3.4]octane-2-carboxylate] |
| ### (### is ≥75%) | ### (### is ≥75%) | CCN1CCN(c2cccc(Cl)c2CN2CC3(CCN(C(=O)OC(C(F)(F)F)C(F)(F)F)CC3)C2)CC1 [Example 50, 1,1,1,3,3,3-Hexafluoropropan-2-yl 2-(2-chloro-6-(4-ethylpiperazin-1-yl)benzyl)-2,7-diazaspiro[3.5]nonane-7-carboxylate] |
| ### (### is ≥75%) | ### (### is ≥75%) | O=C(OC(C(F)(F)F)C(F)(F)F)N1CCC2(CC1)CN(Cc1c(Cl)cccc1N1CCCCC1)C2 [Example 45, 1,1,1,3,3,3-Hexafluoropropan-2-yl 2-(2-chloro-6-(piperidin-1-yl)benzyl)-2,7-diazaspiro[3,5]nonane-7-carboxylate] |

The remaining lines, values behind:

| SMILES | % Inh ABHD6 Brain (Mouse, μM) (ABHD6) | % Inh MGLL Brain (Mouse, μM) (MGLL) |
| --- | --- | --- |
| CC(=O)N1CC2(CCN(c3cc(C(F)(F)F)ccc3CN3CCN(C(=O)OC(C(F)(F)F)C(F)(F)F)CC3)C2)C1 [Example 180, 1,1,1,3,3,3-Hexafluoropropan-2-yl 4-(2-(2-acetyl-2,6-diazaspiro[3,4]octan-6-yl)-4-(trifluoromethyl)benzyl)pipera zine-1-carboxylate] | # (# is ≤25%) | ### (### is ≥75%) |
| O=C(OC(C(F)(F)F)C(F)(F)F)N1CCC2(CC1)CN(Cc1ccc(N3CCCC3)cc1)C2 [Example 80, 1,1,1,3,3,3-Hexafluoropropan-2-yl 2-(4-(pyrrolidin-1-yl)benzyl)-2,7-diazaspiro[3.5]nonane-7-carboxylate] | # (# is ≤25%) | ### (### is ≥75%) |
| CC(=O)N1CCC2(CCN(c3ccccc3CN3CCN(C(=O)OC(C(F)(F)F)C(F)(F)F)CC3)C2)C1 (stereo not drawn) [Example 166, 1,1,1,3,3,3-Hexafluoropropan-2-yl 4-(2-(7-acetyl-2,7-diazaspiro[4.4]nonan-2-yl)benzyl)piperazine-1-carboxylate] | # (# is ≤25%) | ### (### is ≥75%) |
| Cc1ccccc1CN1CC2(CCN(C(=O)OC(C(F)(F)F)C(F)(F)F)CC2)C1 [Example 91, 1,1,1,3,3,3-Hexafluoropropan-2-yl 2-(2-methylbenzyl)-2,7-diazaspiro[3.5]nonane-7-carboxylate] | ### (### is ≥75%) | ### (### is ≥75%) |
| O=C(OC(C(F)(F)F)C(F)(F)F)N1CCC2(CC1)CN(Cc1c(Cl)cccc1N1CCC3(CCOCC3)C1)C2 [Example 48, 1,1,1,3,3,3-Hexafluoropropan-2-yl 2-(2-chloro-6-(8-oxa-2-azaspiro[4.5]decan-2-yl)benzyl)-2,7-diazaspiro[3.5]nonane-7-carboxylate] | ### (### is ≥75%) | ### (### is ≥75%) |
| CN(Cc1ccc(C(F)(F)F)cc1N1CCCC1)C1(C)CCN(C(=O)OC(C(F)(F)F)C(F)(F)F)CC1 [Example 72, 1,1,1,3,3,3-Hexafluoropropan-2-yl 4-methyl-4-(methyl(2-(pyrrolidin-1-yl)-4-(trifluoromethyl)benzyl)amino) piperidine-1-carboxylate] | # (# is ≤25%) | ### (### is ≥75%) |
| CN1CC2CN(c3cc(Cl)ccc3CN3CCN(C(=O)OC(C(F)(F)F)C(F)(F)F)CC3)CC2C1 (stereo not drawn) [Example 206, 1,1,1,3,3,3-Hexafluoropropan-2-yl 4-(4-chloro-2-(5-methylhexahydropyrrolo[3,4-c]pyrrol-2(1H)-yl)benzyl)piperazine-1-carboxylate] | # (# is ≤25%) | ### (### is ≥75%) |
| CN1CCCC12CCN(c1cc(Cl)ccc1CN1CCN(C(=O)OC(C(F)(F)F)C(F)(F)F)CC1)CC2 [Example 214, 1,1,1,3,3,3-Hexafluoropropan-2-yl 4-(4-chloro-2-(1-methyl-1,8-diazaspiro[4.5]decan-8-yl)benzyl)piperazine-1-carboxylate] | # (# is ≤25%) | ### (### is ≥75%) |
| CC(=O)N1CC2(CCN(c3cc(Cl)cc(CN4CCCC45CN(C(=O)OC(C(F)(F)F)C(F)(F)F)C5)c3)CC2)C1 [Example 238, 1,1,1,3,3,3-Hexafluoropropan-2-yl 5-(3-(2-acetyl-2,7-diazaspiro[3.5]nonan-7-yl)-5-chlorobenzyl)-2,5- .diazaspiro[3.4]octane-2-carboxylate] | ### (### is ≥75%) | ### (### is ≥75%) |
| O=C(OC(C(F)(F)F)C(F)(F)F)N1CCC2(CC1)CN(Cc1ccccc1F)C2 [Example 98, 1,1,1,3,3,3-Hexafluoropropan-2-yl 2-(2-fluorobenzyl)-2,7-diazaspiro[3.5]nonane-7-carboxylate] | ### (### is ≥75%) | ### (### is ≥75%) |
| CS(=O)(=O)N1CC2(CCN(c3cc(Cl)ccc3CN3CCN(C(=O)OC(C(F)(F)F)C(F)(F)F)CC3)C2)C1 [Example 175, 1,1,1,3,3,3-Hexafluoropropan-2-yl 4-(4-chloro-2-(2-(methylsulfonyl)-2,6-diazaspiro[3.4]octan-6-yl)benzyl)piperazine-1-carboxylate] | # (# is ≤25%) | ### (### is ≥75%) |
| O=C(OC(C(F)(F)F)C(F)(F)F)N1CCC2(CC1)CN(Cc1ccc(C(F)(F)F)cc1)C2 [Example 69, 1,1,1,3,3,3-Hexafluoropropan-2-yl 2-(4-(trifluoromethyl)benzyl)-2,7-diazaspiro[3,5]nonane-7-carboxylate] | ### (### is ≥75%) | ### (### is ≥75%) |
